{"source": "paper PMC3677961", "about": "(Chemical biology & drug design, 2008)", "key": {"mammalian tubulin": {"test_system": "mammalian tubulin", "details": "read-out: IC50 against mammalian tubulin; cited from earlier work"}, "Vero cells": {"test_system": "Vero cells", "assay": "Vero cell cytotoxicity", "type": "cell-based, African green monkey", "details": "Chlorocebus sabaeus, read-out: IC50 versus Vero Cells"}, "[1]": {"biological_target": "T1, colchicine site of mammalian tubulin (Sus scrofa, UniProt P02550+P02554)", "assay": "Competition with MTPT for the colchicine site", "type": "binding", "details": "5 μM mammalian tubulin, 5 μM MTPT"}, "[2]": {"test_system": "L. donovani axenic amastigotes", "details": "cited from earlier work"}, "T. b. brucei": {"test_system": "T. b. brucei", "details": "cited from earlier work"}, "[3]": {"details": "cited from earlier work"}, "[4]": {"biological_target": "T1, colchicine site of mammalian tubulin", "details": "cited from earlier work"}, "PPC1": {"test_system": "PPC1", "assay": "SRB growth inhibition assay, PPC-1 prostate cancer cell line", "type": "cell-based", "details": "Homo sapiens, PPC-1, 96 h, read-out: Cancer cell line IC50, PPC1"}, "MCF7": {"test_system": "MCF7", "assay": "SRB growth inhibition assay, MCF-7 breast cancer cell line", "type": "cell-based", "details": "Homo sapiens, MCF7, 96 h, read-out: Cancer cell line IC50, MCF7"}, "LNCaP": {"test_system": "LNCaP", "assay": "SRB growth inhibition assay, LNCaP prostate cancer cell line", "type": "cell-based", "details": "Homo sapiens, 96 h, read-out: Cancer cell line IC50, LNCaP"}, "TSU-Pr1": {"test_system": "TSU-Pr1", "assay": "SRB growth inhibition assay, TSU-Pr1 bladder cancer cell line", "type": "cell-based", "details": "Homo sapiens, TSU-Pr1, 96 h, read-out: Cancer cell line IC50, TSU-Pr1"}, "HT29": {"test_system": "HT29", "assay": "SRB growth inhibition assay, HT-29 colon cancer cell line", "type": "cell-based", "details": "Homo sapiens, HT-29, 96 h, read-out: Cancer cell line IC50, HT29"}, "PC3": {"test_system": "PC3", "assay": "SRB growth inhibition assay, PC-3 prostate cancer cell line", "type": "cell-based", "details": "Homo sapiens, PC-3, 96 h, read-out: Cancer cell line IC50, PC3"}, "[5]": {"details": "phase I and phase II clinical trials; cited from earlier work"}, "[6]": {"test_system": "L. donovani axenic amastigotes", "type": "cell-based", "details": "Leishmania donovani, read-out: IC50 versus L. donovani axenic amastigotes"}}}
{"smiles": "COc1ccc(NS(=O)(=O)c2c(F)c(F)c(F)c(F)c2F)cc1NC(N)=O", "note": "[Compound 30]", "values": [{"measurement": "IC50", "setting": "mammalian tubulin", "value": 2100, "unit": "nM"}]}
{"smiles": "COc1cc([C@@H]2c3cc4c(cc3[C@H](O)[C@H]3COC(=O)[C@H]23)OCO4)cc(OC)c1OC", "note": "[Podophyllotoxin]", "values": [{"measurement": "IC50", "setting": "Vero cells", "value": "50 ± 30", "unit": "nM"}]}
{"smiles": "COc1ccc(CCc2cc(OC)c(OC)c(OC)c2)cc1O", "note": "[Dihydrocombetastatin A4, dihydrocombretastatin A4]", "values": [{"measurement": "Inhibition (%) of MTPT binding in presence of competitors", "setting": "[1]; 2 μM competitor", "value": "30 ± 1", "unit": "%"}, {"measurement": "Inhibition (%) of MTPT binding in presence of competitors", "setting": "[1]; 20 μM competitor", "value": "69 ± 2", "unit": "%"}, {"measurement": "Inhibition (%) of MTPT binding in presence of competitors", "setting": "[1]; 50 μM competitor", "value": "74 ± 2", "unit": "%"}]}
{"smiles": "CCCN(CCC)c1c([N+](=O)[O-])cc(S(=O)(=O)Nc2ccccc2)cc1[N+](=O)[O-]", "note": "[Compound 2, N1-phenyl-3,5-dinitro-N4,N4-di-n-propylsulfanilamide]", "values": [{"measurement": "Activity against Leishmania donovani axenic amastigotes (in words)", "setting": "[2]", "value": "low micromolar activity"}, {"measurement": "Activity against Trypanosoma brucei bloodstream forms (in words)", "setting": "T. b. brucei", "value": "mid-nanomolar activity"}]}
{"smiles": "COc1ccc(NS(=O)(=O)c2c(F)c(F)c(F)c(F)c2F)cc1F", "note": "[Compound 29]", "values": [{"measurement": "Toxicity in phase II clinical trials", "setting": "[3]", "value": "low levels of toxicity"}, {"measurement": "Binding site on mammalian tubulin", "setting": "[4]", "value": "bind to the colchicine site"}, {"measurement": "IC50", "setting": "mammalian tubulin", "value": "~2000", "unit": "nM"}]}
{"smiles": "CC[C@]1(O)C[C@@H]2CN(CCc3c([nH]c4ccccc34)[C@@](C(=O)OC)(c3cc4c(cc3OC)N(C)[C@H]3[C@@](O)(C(=O)OC)[C@H](OC(C)=O)[C@]5(CC)C=CCN6CC[C@]43[C@@H]65)C2)C1", "note": "[Vinblastine]", "values": [{"measurement": "IC50", "setting": "PPC1", "value": "1 ± 0.4", "unit": "nM"}, {"measurement": "IC50", "setting": "MCF7", "value": "1.3 ± 0.4", "unit": "nM"}, {"measurement": "IC50", "setting": "LNCaP", "value": "3.4 ± 0.9", "unit": "nM"}, {"measurement": "IC50", "setting": "TSU-Pr1", "value": "1.6 ± 0.08", "unit": "nM"}, {"measurement": "IC50", "setting": "HT29", "value": "2.4 ± 0.2", "unit": "nM"}, {"measurement": "IC50", "setting": "PC3", "value": "1.4 ± 0.3", "unit": "nM"}]}
{"smiles": "COc1ccc(S(=O)(=O)Nc2cccnc2Nc2ccc(O)cc2)cc1", "note": "[Compound 28]", "values": [{"measurement": "Binding site on mammalian tubulin", "setting": "[4]", "value": "bind to the colchicine site"}, {"measurement": "Oral bioavailability", "setting": "[5]", "value": "orally bioavailable"}, {"measurement": "IC50", "setting": "mammalian tubulin", "value": 2200, "unit": "nM"}]}
{"smiles": "N=C(N)c1ccc(OCCCCCOc2ccc(C(=N)N)cc2)cc1", "note": "[Pentamidine]", "values": [{"measurement": "IC50", "setting": "[6]", "value": "3200 ± 1500", "unit": "nM"}]}
